Each structure is given as a SMILES string.

The values below come from publication PMC3214022, “Plasmodium falciparum Parasites Are Killed by a Transition State Analogue of Purine Nucleoside Phosphorylase in a Primate Animal Model” (PLoS ONE, 2011).

In one assay the test system is P. falciparum strain Dd2. In words: 72 h in vitro growth inhibition test, PicoGreen DNA quantitation. The settings on record: Plasmodium falciparum, DD2, 72 h. In kind it is cell-based. The method, then: (§1) Briefly, synchronous culture in the schizont stage was cultured for 24 h in media containing 10 µM of hypoxanthine. Ring stage parasite cultures (200 µl per well, with 1% hematocrit and 1% parasitaemia) were then grown for 72 h in the presence of increasing concentrations of the drug. After 72 h in culture, parasite viability was determined by DNA quantitation using PicoGreen (Invitrogen) as described by Quashie and colleagues. The half-maximum inhibitory concentration (IC50) calculation was performed with Origin software (OriginLab) using a nonlinear regression curve fitting. Half-maximum inhibitory concentration (IC50) is the concentration of inhibitor needed to kill 50% of parasites.

The subject of another assay is P. falciparum strain 3D7. Described as above. It is filed as cell-based. To be noted: Plasmodium falciparum, 3D7, 72 h. The method, then: as §1
The next assay concerns P. falciparum strain FVO. The assay is described as above. The settings on record: Plasmodium falciparum, chloroquine/quinine resistant strain FVO, 1% hematocrit, 10 µM hypoxanthine. In kind it is cell-based. As to the method:
as §1

The test system of assay [1] is purine salvage (hypoxanthine, inosine, adenosine, 2′-deoxyguanosine). Nature of the assay: Purine metabolites in plasma and blood cells of treated Aotus monkeys (UPLC-MS/MS). It is filed as in vivo, Aotus lemurinus lemurinus. The method, then: Samples from blood cells, plasma and media were extracted and analyzed in duplicate. […] Samples were incubated for 20 min at 4 °C and neutralized with 5 M KOH at 10∶1 (v/v, HClO4/KOH) for 20 min at 4 °C. Plates were centrifuged (10 min at 4,000 rpm, 4°C) and supernatants were filtered through a MultiScreen® Filter Plate with Ultracel®-10 Membrane (Millipore). Metabolite and inhibitor levels were quantified by UPLC/MS/MS using a Xevo TQ mass spectrometer (Waters). […] Quantitative determination was performed in ESI positive-ion mode using multiple-reaction monitoring (MRM) mode. The ESI capillary voltage was 0.3 kV, source temperature was set at 150 °C and desolvation temperature at 450 °C. Data acquisition and analysis were carried out by MassLynx V4.1 and QuanLynx software (Waters). The concentration of the metabolites was calculated by interpolation of the observed analyte/internal standard peak-area ratio with the corresponding calibration curve.
Laboratory bred Aotus lemurinus lemurinus monkeys (0.75–0.89 kg) were maintained as described. […] Blood samples were collected before the treatment started (t = 0), 0.05 h, 0.5 h, 1 h, 2 h, 6 h, 24 h, 48 h, and 6, 12 and 18 days after the first dose from each monkey and processed as described below. Pharmacokinetic parameters were calculated using PKSolver. For efficacy studies, Aotus monkeys were inoculated intravenously with 5×10^6 parasites of the FVO strain of P. falciparum in an approved treatment protocol. […] Parasitaemia was determined by Giemsa-stained thick blood smears prepared daily from the marginal ear vein [41]. Blood samples were collected from each monkey and transferred to tubes containing lithium heparin, centrifuged and both plasma and blood cells were frozen at −80 °C until analysis. Animals received a physical examination and blood chemistry profiles were monitored after treatment as described previously. Any monkey not responding appropriately to treatment was cured of its infection with mefloquine (40 mg kg^−1). […] The day of clearance is defined as the first of three consecutive days in which the thick blood films are parasite negative. The day of recrudescence is the first of three consecutive days of positive thick blood films after a period of clearance. Suppression is defined as a transient decrease in the parasite count post-treatment without clearance.

Setting [2] is: infected Aotus under BCX4945 treatment.

The term IC50 denotes the concentration at which inhibition is half-maximal. Low values mean greater potency in that assay, high ones weaker potency in that assay. As for `Nc1nc2c(CN3CC(O)C(CO)C3)c[nH]c2c(=O)[nH]1` (centres unmarked) [BCX4945, 4′-deaza-1′-aza-2′-deoxy-1′-(9-methylene)-Immucillin-G], the IC50 with P. falciparum strain Dd2 came to 130 ± 22 nM; in the assay with P. falciparum strain 3D7, 164 ± 20 nM; with P. falciparum strain FVO, 202 ± 27 nM. The “hypoxanthine in plasma throughout the treatment period” value in assay [1] (50 mg kg^−1 per dose twice a day) worked out at 0.3 ± 0.2 µM. Moreover, in assay [1] (BCX4945 treatment), the “2′-deoxyguanosine levels in plasma and blood cells” value is “increased”. Moreover, the “hypoxanthine concentration in plasma and blood cells” value in assay [1] (setting [2]) was “below 0.3 µM”. The “inosine concentration in plasma and blood cells” value in assay [1] (setting [2]) is recorded as “above 50 µM”. The “hypoxanthine reappearing in the blood” value in assay [1] (infected animals, three days after the end of three-day oral treatment) is recorded as around 30 µM.
